`O=C1CCC(c2ccc(C(=O)NCc3ccccc3)cc2)=NN1` [Example 7] gave a melting point of 208 to 209 °C.

In turn, `COC(=O)c1ccc(NC(=O)c2ccc(C3=NNC(=O)CC3)cc2)o1` [Example 24] registered a melting point above 260 °C. In turn, `CC1CC(=O)NN=C1c1ccc(C(=O)N2CCCc3ccccc32)cc1` (stereo not shown) [Example 56] came in with a melting point above 260 °C. In the case of `CC(C)COC(=O)c1ccc(C2=NNC(=O)CC2)cc1` [Example 32] it was 259 to 260 °C; in that of `CCCOC(=O)c1ccc(C2=NNC(=O)CC2)cc1` [Example 31], 283 to 284 °C; in that of `O=C1CCC(c2ccc(C(=O)OCC3CC3)cc2)=NN1` [Example 34], 158 to 159 °C. The compound `O=C1CCC(c2ccc(C(=O)NCc3cccnc3)cc2)=NN1` [Example 20] gave a melting point of 220 to 223 °C.

As for `O=C1CCC(c2ccc(C(=O)NCCc3cccs3)cc2)=NN1` [Example 44], the melting point lay in the range of 215 to 216 °C. Compound `O=C1CCC(c2ccc(C(=O)Nc3ccccc3Cl)cc2)=NN1` [Example 18] gave a melting point of 209 to 210 °C. In turn, `O=C1CCC(c2ccc(C(=O)NCc3ccco3)cc2)=NN1` [Example 5] yielded a melting point of 208 to 210 °C. In turn, `O=C1CCC(c2ccc(C(=O)OC3CCCC3)cc2)=NN1` [Example 35] came in with a melting point of 167 to 169 °C. `O=C1CCC(c2ccc(C(=O)NCc3ccccn3)cc2)=NN1` [Example 17] returned a melting point of 228 to 230 °C. `CN(C(=O)c1ccc(C2=NNC(=O)CC2)cc1)c1ccccc1` [Example 42] gave a melting point of 208 to 209 °C.

With `O=C1CCC(c2ccc(C(=O)NCc3ccc(Cl)c(Cl)c3)cc2)=NN1` [Example 30], the melting point was in the range of 208 to 209 °C. In the case of `O=C1CCC(c2ccc(C(=O)NCc3ccccc3F)cc2)=NN1` [Example 49] it was 186 to 187 °C. Regarding `COc1ccc(CCNC(=O)c2ccc(C3=NNC(=O)CC3C)cc2)cc1` (stereo not shown) [Example 60], the melting point was 245 to 246 °C.

In turn, `O=C1CCC(c2ccc(C(=O)NC3CCCCC3)cc2)=NN1` [Example 27] showed a melting point of 249 to 250 °C.

With `O=C1CCC(c2ccc(C(=O)Nc3c(Cl)cccc3Cl)cc2)=NN1` [Example 8], the melting point was above 250 °C. As for `NC(=O)c1ccccc1NC(=O)c1ccc(C2=NNC(=O)CC2)cc1` [Example 51], the melting point was above 250 °C. `CC1CC(=O)NN=C1c1ccc(C(=O)Nc2ccc3ccccc3c2)cc1` (stereo not shown) [Example 55]: the melting point is 271 to 272 °C. To `CNC(=O)c1ccc(C2=NNC(=O)CC2)cc1` [Example 14] belongs 233 to 234 °C; to `COc1cccc(CCNC(=O)c2ccc(C3=NNC(=O)CC3C)cc2)c1` (stereo not shown) [Example 61], 164 to 165 °C; to `CCCCNC(=O)c1ccc(C2=NNC(=O)CC2)cc1` [Example 4], 217 to 218 °C. The compound `CCOC(=O)c1ccc(C2=NNC(=O)CC2)cc1` [Example 12] yielded a melting point of 157 to 159 °C. With `O=C1CCC(c2ccc(C(=O)Nc3cccc(Cl)c3)cc2)=NN1` [Example 22], the melting point was above 250 °C. In turn, `CC1CC(=O)NN=C1c1ccc(C(=O)Nc2cccc3ccccc23)cc1` (stereo not shown) [Example 54] had a melting point of 266 to 267 °C.

For the compound `CC(C)OC(=O)c1ccc(C2=NNC(=O)CC2)cc1` [Example 9], the melting point lay within 155 to 156 °C. As for `O=C1CCC(c2ccc(C(=O)NCCc3ccccc3F)cc2)=NN1` [Example 43], the melting point lay within 189 to 190 °C. To `COC(=O)c1ccc(C2=NNC(=O)CC2)cc1` [Example 6] belongs 203 to 205 °C; to `CC1CC(=O)NN=C1c1ccc(C(=O)Nc2cccnc2)cc1` (stereo not shown) [Example 53], 267 to 268 °C. `CC(NC(=O)c1ccc(C2=NNC(=O)CC2)cc1)c1ccccc1` (stereo not shown) [Example 23] showed a melting point of 242 to 243 °C. On to `O=C1CCC(c2ccc(C(=O)Nc3ccccc3)cc2)=NN1` [Example 13], for which the melting point is above 250 °C. Take `O=C1CCC(c2ccc(C(=O)NCc3cccc4ccccc34)cc2)=NN1` [Example 16]: the melting point lay within 258 to 260 °C. To `CCNC(=O)c1ccc(C2=NNC(=O)CC2)cc1` [Example 15] belongs 228 to 230 °C; to `C=CCOC(=O)c1ccc(C2=NNC(=O)CC2)cc1` [Example 36], 131 to 133 °C. As for `O=C1CCC(c2ccc(C(=O)N3CCOCC3)cc2)=NN1` [Example 29], the melting point lay within 202 to 203 °C. Consider `O=C1CCC(c2ccc(C(=O)Nc3cccc(C(F)(F)F)c3)cc2)=NN1` [Example 28], for which the melting point is 229 to 230 °C. In the case of `O=C1CCC(c2ccc(C(=O)OCCc3ccccc3)cc2)=NN1` [Example 39], the melting point lay in the range of 146 to 148 °C. `CC(C)CNC(=O)c1ccc(C2=NNC(=O)CC2C)cc1` (stereo not shown) [Example 62] returned a melting point of 166 to 167 °C. `CCC(C)OC(=O)c1ccc(C2=NNC(=O)CC2)cc1` (stereo not shown) [Example 33] gave a melting point of 120 to 122 °C. For `O=C1CCC(c2ccc(C(=O)Nc3c(F)cccc3F)cc2)=NN1` [Example 45], the melting point lay within 278 to 279 °C. For the compound `O=C1CCC(c2ccc(C(=O)OCC3CCC3)cc2)=NN1` [Example 40], the melting point was 155 to 156 °C. In the case of `O=C1CCC(c2ccc(C(=O)N3CCCCC3)cc2)=NN1` [Example 19] it was 182 to 184 °C. For `O=C1CCC(c2ccc(C(=O)NC3CC3)cc2)=NN1` [Example 11], the melting point was in the range of 248 to 250 °C. With `NC(=O)c1ccsc1NC(=O)c1ccc(C2=NNC(=O)CC2)cc1` [Example 47], the melting point is above 250 °C. For `O=C1CCC(c2ccc(C(=O)OCc3ccccc3)cc2)=NN1` [Example 41], the melting point is 156 to 157 °C. In the case of `COc1ccc(CCNC(=O)c2ccc(C3=NNC(=O)CC3C)cc2)cc1OC` (stereo not shown) [Example 63], the melting point lay in the range of 146 to 147 °C. To `CC(OC(=O)c1ccc(C2=NNC(=O)CC2)cc1)C1CC1` (stereo not shown) [Example 38] belongs 104 to 105 °C. Take `O=C1CCC(c2ccc(C(=O)NCCc3ccccc3)cc2)=NN1` [Example 10]: the melting point was 223 to 226 °C. To `O=C1CCC(c2ccc(C(=O)N3CCCc4ccccc43)cc2)=NN1` [Example 25] belongs 215 to 216 °C. `CC1CC(=O)NN=C1c1ccc(C(=O)NC2CC2)cc1` (stereo not shown) [Example 57] came in with a melting point of 216 to 217 °C. For `CC(C)CCNC(=O)c1ccc(C2=NNC(=O)CC2C)cc1` (stereo not shown) [Example 58], the melting point is 152 to 153 °C.

Compound `Cc1ccc(NC(=O)c2ccc(C3=NNC(=O)CC3)cc2)cc1` [Example 21] showed a melting point above 250 °C.

`CC1CC(=O)NN=C1c1ccc(C(=O)NCC(c2ccccc2)c2ccccc2)cc1` (stereo not shown) [Example 59]: the melting point is 186 to 187 °C. Compound `CN(CCOC(=O)c1ccc(C2=NNC(=O)CC2)cc1)Cc1ccccc1` [Example 37] showed a melting point of 90 to 91 °C.

The term melting point denotes the temperature of the solid-liquid transition.
